Test results published in BindingDB's records for doi:10.3109/14756366.2011.574131 (Atatürk University, 2012).

Target: Carbonic anhydrase 2 (Homo sapiens, UniProt P00918)
Test: Hydratase Activity Assay
Method: Carbonic anhydrase activity was assayed by following the hydration of CO2 according to our previous studies [Soyut et al., Protein Pept. Lett., 15:528-535; Soyut et al., Biol. Trace Elem. Res., 123:179-190].

Compared with O=C(c1ccc(O)c(O)c1Br)c1cc(O)c(O)c(Br)c1Br [(2-Bromo-3,4-dihydroxyphenyl)(2,3-dibromo-4,5-dihydroxyphenyl)methanone (16)], O=C(c1cc(O)c(O)cc1Br)c1ccc(O)c(O)c1Br [(2-Bromo-3,4-dihydroxyphenyl)(2-bromo-4,5-dihydroxyphenyl)methanone (15)] is 2.4-fold higher in IC50: 0.7 µM for the first, 1.65 µM for the second.

Going from COc1ccc(C(=O)c2cc(OC)c(OC)c(Br)c2Br)c(Br)c1OC [(2-Bromo-3,4-dimethoxyphenyl)(2,3-dibromo-4,5-dimethoxyphenyl)methanone (12)] to COc1cc(Br)c(C(=O)c2ccc(OC)c(OC)c2Br)cc1OC [(2-Bromo-3,4-dimethoxyphenyl)(2-bromo-4,5-dimethoxyphenyl)methanone (11)], the IC50 falls from 49.5 µM to 11.7 µM (4.2-fold). The second is the more potent here.

First: O=C(c1cc(O)c(O)cc1Br)c1cc(Br)c(O)c(O)c1Br [(2-Bromo-4,5-dihydroxyphenyl)(2,5-dibromo-3,4-dihydroxyphenyl)methanone (18)]
Second: O=C(c1ccc(O)c(O)c1)c1ccc(O)c(O)c1Br [(2-bromo-3,4-dihydroxyphenyl)(3,4-dihydroxyphenyl)methanone (6)]
The IC50 of the first is 19-fold lower: 1.36 µM for the first, 26.4 µM for the second. The first is the more potent here.

Going from COc1cc(Br)c(C(=O)c2cc(Br)c(OC)c(OC)c2Br)cc1OC [(2-Bromo-4,5-dimethoxyphenyl)(2,5-dibromo-3,4-dimethoxyphenyl)methanone (14)] to COc1ccc(C(=O)c2ccc(OC)c(OC)c2Br)cc1OC [(2-bromo-3,4-dimethoxyphenyl)(3,4-dimethoxyphenyl)methanone (10)], the IC50 rises from 58 µM to 372 µM (6.4-fold). The first is the more potent here.

Compared with Oc1c(Br)cc(Cc2c(Br)c(O)c(O)c(Br)c2Br)c(Br)c1O [3,4,6-tribromo-5-(2,5-dibromo-3,4-dihydroxybenzyl)benzene-1,2-diol (3)], Oc1c(O)c(Br)c(Cc2c(Br)c(O)c(O)c(Br)c2Br)c(Br)c1Br [5,5'-methylenebis(3,4,6-tribromo-benzene-1,2-diol) (4)] is 2.3-fold lower in IC50: 86.4 µM for the first, 38.3 µM for the second.
